From patent US7307079B2, “1,3,5-Triazine derivatives as ligands for human adenosine-A3 receptors” (Solvay Pharmaceuticals, B.V., priority 2002, dated 2007) come the findings set out here.

The experiment concerns the target T1, human adenosine-A3 receptor (Homo sapiens, UniProt P0DMS8).
T1 construct: expressed in transfected cells; membrane preparations
T1 sequence (P0DMS8 1-318): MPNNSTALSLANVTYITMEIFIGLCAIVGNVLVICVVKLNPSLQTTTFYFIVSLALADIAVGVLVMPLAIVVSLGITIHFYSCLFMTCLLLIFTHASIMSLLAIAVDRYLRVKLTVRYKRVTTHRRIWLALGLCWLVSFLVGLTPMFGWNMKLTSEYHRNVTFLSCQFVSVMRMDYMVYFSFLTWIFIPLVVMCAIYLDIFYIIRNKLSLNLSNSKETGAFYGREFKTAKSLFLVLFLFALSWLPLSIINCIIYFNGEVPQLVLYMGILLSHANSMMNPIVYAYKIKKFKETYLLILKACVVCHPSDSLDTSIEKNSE
The experiment in a line: Receptor binding to human adenosine-A3 receptors ([125I]-AB-MECA displacement, HEK 293 membranes). On the procedure:
Receptor Binding to Human Adenosine-A3 Receptors
Affinity of the compounds for human adenosine-A3 receptors was determined using the receptor binding assay described by C. A. Salvatore et al.: Molecular cloning and characterization of the human A3 adenosine receptor, Proc. Natl. Acad. Sci. USA, 90, 10365-10369, 1993. Briefly, membrane preparations were obtained from human recombinant (HEK 293) cells in which the human adenosine-A3 receptor was stably expressed. Membranes were incubated at 22° C. for 90 minutes with [^125l]-AB-MECA in the absence or presence of testcompounds in a concentration range from 10 μM down to 0.1 nM, diluted in a suitable buffer. Separation of bound radioactivity from free was done by filtration through Packard GF/B glass fiber filters with several washings with ice-cold buffer using a Packard cell harvester. Bound radioactivity was measured with a scintillation counter (Topcount, Packard) using a liquid scintillation cocktail (Microscint 0, Packard). Measured radioactivity was plotted against the concentration of the displacing test compound and displacement curves were calculated by four-parameter logistic regression, resulting in IC50 values, i.e. that concentration of displacing compound by which 50% of the radioligand is displaced. […]

For the molecule `C[C@@H](Nc1nc(Cl)nc(Nc2ccc3c(c2)OCO3)n1)[C@@H](O)c1ccccc1` [formula (9), (1S,2R)-2-{[4-chloro-6-(3,4-methylenedioxy-phenylamino)-[1,3,5]triazin-2-yl]-amino}-1-phenyl-propan-1-ol], the Ki ([125I]-AB-MECA, membranes of HEK 293 cells expressing human A3, 22° C., 90 minutes, read-out: affinity for human adenosine-A3 receptors pKi (converted)) is 1 nM. The “affinity for human adenosine-A3 receptors (in words)” value (binding assay, result stated in words) was “highly active”.
